{"source": "patent US12168781B2", "about": "“Production method for T cells or NK cells, medium for culturing T cells or NK cells, method for culturing T cells or NK cells, method for maintaining undifferentiated state of undifferentiated T cells, and growth-accelerating agent for T cells or NK cells” (KIRIN HOLDINGS KABUSHIKI KAISHA, priority 2018, dated 2024)", "format_in_all_cases": "cell-based, human", "key": {"T-iPS-T cells [1]": {"tested_on": "T-iPS-T cells", "assay": "Feeder-free culture of T-iPS-T cells, FACS count of PI-negative cells and CD45RA(+)CCR7(+) cells", "settings": "6 days; for Number of CD45RA+CCR7+ cells: DMSO 3891 ± 3170; for Cell number: DMSO 16096 ± 10785", "experimental": "After washing, the cells were resuspended in the staining solution containing PI. Half the amount was analyzed using a BD LSR Fortessa cytometer (BD Bioscience) equipped with HTS, and all cells were recorded.\nThe concentration dependence of the bisbenzylisoquinoline alkaloid represented by the formula (X-1) or the formula (X-2) in feeder-free proliferation of T-iPS-T cells was examined. T-iPS-T cells were cultured using alpha-MEM medium supplemented with 15% FBS, 1% PSG, PAA (50 μg/mL), ITS-G, IL-7 (5 ng/mL), IL-12 (50 ng/mL), IL-15 (5 ng/mL), IL-18 (50 ng/mL), IL-21 (20 ng/mL), and z-VAD-fmk (10 μM).\nThe effect on culturing of T-iPS-T cells was evaluated by comparing a known compound that contributes to the proliferation of memory T cells with berbamine. […] DMSO (0.1%) that is a solvent for the compound was used as a control.\nThe number of events of PI-negative cells and the number of events of CD45RA(+)CCR7(+) cells in the PI-negative cells, which were analyzed by FlowJo 9, were used as data. Note that in a statistical analysis, a Student's t-test was used (*: p<0.05).\nThe effect of the combined use of berbamine with a MAPK cascade inhibitor on the proliferation of memory T cells was examined. […] The final concentration of each compound was set to 1 μM. DMSO (0.1%) that is a solvent for the compound was used as a control.\nThe number of events (#Cells) of CD45RA(+)CCR7(+) cells in the PI-negative cell population analyzed by FlowJo 9 was plotted and graphed. Note that in a statistical analysis, a Student's t-test was used (*: p<0.05, **P<0.01, ***P<0.001, ****P<0.0001)."}, "T-iPS-T cells [2]": {"tested_on": "T-iPS-T cells", "assay": "Comparison with PBMC feeder: proliferation of T-iPS-T cells", "settings": "1 μM added to CD3/CD28 Dynabeads vs PBMC feeder, FIG. 10", "experimental": "By using T-iPS-T cells, a proliferation promoting effect was compared by culturing the cells using the following three methods: the same stimulation method as in Example 2 using PBMC feeder, the same stimulation method as in Example 4 using CD3/CD28 Dynabeads, and the same stimulation method as in Example 4 in which berbamine (SIGMA, 547190) at 1 μM was added to CD3/CD28 Dynabeads. The PBMC feeder cells were labeled using CellTrace CFSE Cell Proliferation Kit for Flow Cytometry (CFSE, Invitrogen, 100 nM) in order to discriminate them from T-iPS-T cells, and then, a radiation irradiation treatment was performed.\nFrom the above results, it can be said that the present invention can substitute PBMCs which have been conventionally used for the proliferation of T cells."}, "[3]": {"tested_on": "primary T cells (CD4 T, CD8 T cells)", "assay": "Proliferation of primary T cells purified from PBMCs", "settings": "1 μM, 6 days, restimulated, further 4 days, FIG. 16", "experimental": "The effect of berbamine on proliferation of primary T cells (CD4 T, CD8 T cells) was examined. As a method therefor, CD3 T cells were purified from PBMCs (CTL, Inc.) using Pan T Cell Isolation Kit, human (Miltenyi, 130-096-535). The purified CD3 T cells (20,000 cells/well) were seeded, and berbamine (BBM) at 1 μM or MilliQ water that is a solvent for the compound as a control was added thereto, and the cells were stimulated with CD3/CD28 Dynabeads (60,000 beads/well).\nThe cells were cultured for 6 days in the same culture medium as in Example 6 and restimulated. After the cells were further cultured for 4 days, the number of viable cells was counted by a trypan blue method and the ratios of CD4-positive cells and CD8-positive cells were analyzed by FACS. […]\nAfter washing, the cells were resuspended in 200 μL/well of the staining solution containing PI. The suspension in an amount of 100 μL/well was analyzed using a BD LSR Fortessa cytometer (BD Bioscience) equipped with HTS, and all cells were recorded.\nThe value obtained by multiplying the positive rate of CD8(+) or CD4(+) cells in the PI-negative cell population analyzed by FlowJo 9 by the number of viable cells was defined as the number of CD8-positive cells or the number of CD4-positive cells. […]"}, "NK cells": {"tested_on": "NK cells", "assay": "Proliferation of NK cells purified from PBMCs, trypan blue count", "settings": "1 μM, 14 days, NK cells of 3 donors, FIG. 20(C)", "from_the_text": "The effect of berbamine on NK cells was examined. As a method therefor, NK cells were purified from PBMCs (CTL, Inc.) derived from 3 healthy donor subjects using NK Cell Isolation Kit, human (Miltenyi, 130-092-657).\nThe NK cells before and after purification were washed with a staining solution (PBS containing 2% FBS) and then stained with CD56-FITC (BioLegend, 362546) and CD3-APC-Cy7 (BioLegend, 300318).\nAfter washing, the cells were resuspended in the staining solution containing propidium iodide and measured using a BD FACSCanto II Flow Cytometer (BD Bioscience). The ratios of CD3(−) and CD56(+) cells in the PI-negative cell population analyzed by FlowJo 10 were confirmed.\nAs shown in FIG. 20(B), the ratios of CD3(−) and CD56(+) cells showing NK cells were 90% or more, which were sufficient. The purified NK cells (37,000 cells/well) were seeded, and cultured using MEM Alpha medium (Gibco, 12571-063) supplemented with 15% FBS (Biological Industries, 04-001-1A), L-Ascorbic Acid 2-Phosphate Sesquimagnesium Salt Hydrate (L-asc-2P, 50 μg/mL, nacalai tesque, 13570-66), ITS-G, IL-7 (10 ng/mL), and IL-15 (5 ng/mL).\nTo the culture medium, berbamine (BBM) at 1 μM or MilliQ water that is a solvent for the compound as a control was added, and after culturing for 14 days, the number of viable cells was counted by a trypan blue method."}}, "data": [{"compound": "COc1cc2c3cc1Oc1c(OC)c(OC)cc4c1[C@@H](Cc1ccc(O)c(c1)Oc1ccc(cc1)C[C@@H]3N(C)CC2)N(C)CC4", "note": "[berbamine]", "values": [{"measurement": "Number of CD45RA+CCR7+ cells", "setting": "T-iPS-T cells [1]; 1 nM", "result": "5761 ± 4045"}, {"measurement": "Cell number", "setting": "T-iPS-T cells [1]; 1 nM", "result": "18397 ± 10723"}, {"measurement": "Number of CD45RA+CCR7+ cells", "setting": "T-iPS-T cells [1]; 3 nM", "result": "5667 ± 4255"}, {"measurement": "Cell number", "setting": "T-iPS-T cells [1]; 3 nM", "result": "19540 ± 11587"}, {"measurement": "Number of CD45RA+CCR7+ cells", "setting": "T-iPS-T cells [1]; 10 nM", "result": "6186 ± 3617"}, {"measurement": "Cell number", "setting": "T-iPS-T cells [1]; 10 nM", "result": "24672 ± 10675 **"}, {"measurement": "Number of CD45RA+CCR7+ cells", "setting": "T-iPS-T cells [1]; 30 nM", "result": "7186 ± 4180 *"}, {"measurement": "Cell number", "setting": "T-iPS-T cells [1]; 30 nM", "result": "30885 ± 12249 **"}, {"measurement": "Number of CD45RA+CCR7+ cells", "setting": "T-iPS-T cells [1]; 100 nM", "result": "10224 ± 3801 **"}, {"measurement": "Cell number", "setting": "T-iPS-T cells [1]; 100 nM", "result": "48026 ± 6597 **"}, {"measurement": "Number of CD45RA+CCR7+ cells", "setting": "T-iPS-T cells [1]; 300 nM", "result": "12034 ± 6515 *"}, {"measurement": "Cell number", "setting": "T-iPS-T cells [1]; 300 nM", "result": "54888 ± 5691 **"}, {"measurement": "number of CD45RA(+)CCR7(+) cells, rank among the 266 compounds", "setting": "T-iPS-T cells [1]; 1 μM, FIG. 7", "result": "highest number of CD45RA(+)CCR7(+) cells"}, {"measurement": "proliferation of T-iPS-T cells (PI-negative cells and CD45RA(+)CCR7(+) cells) vs DMSO", "setting": "T-iPS-T cells [1]; 1 μM, FIG. 12", "result": "significant proliferation effect"}, {"measurement": "Number of CD45RA+CCR7+ cells", "setting": "T-iPS-T cells [1]; 1 μM", "result": "12957 ± 9483"}, {"measurement": "Cell number", "setting": "T-iPS-T cells [1]; 1 μM", "result": "43432 ± 23926"}, {"measurement": "Number of CD45RA+CCR7+ cells", "setting": "T-iPS-T cells [1]; 3 μM", "result": "13552 ± 10355"}, {"measurement": "Cell number", "setting": "T-iPS-T cells [1]; 3 μM", "result": "43656 ± 29882"}, {"measurement": "Number of CD45RA+CCR7+ cells", "setting": "T-iPS-T cells [1]; 10 μM", "result": "5650 ± 8552"}, {"measurement": "Cell number", "setting": "T-iPS-T cells [1]; 10 μM", "result": "20559 ± 34130"}, {"measurement": "number of CD45RA(+)CCR7(+) cells compared with DMSO", "setting": "T-iPS-T cells [1]; each compound 1 μM, FIG. 13", "result": "significant cell proliferation"}, {"measurement": "number of undifferentiated cells compared with the presence of feeder cells", "setting": "T-iPS-T cells [2]", "result": "comparable results"}, {"measurement": "number of viable cells compared with the presence of feeder cells", "setting": "T-iPS-T cells [2]", "result": "significant increase in the number of viable cells"}, {"measurement": "number of CD4-positive cells compared with MilliQ water", "setting": "[3]", "result": "significant enhancement of cell proliferation"}, {"measurement": "number of CD8-positive cells compared with MilliQ water", "setting": "[3]", "result": "significant enhancement of cell proliferation"}, {"measurement": "number of NK cells compared with MilliQ water", "setting": "NK cells", "result": "increase in the number of NK cells"}]}]}
